Consider 8 molecules from article PMC3433420 (PLoS ONE, 2012).

In test [1] the target is T1, PIK3R1-NC tandem SH2 domains (Homo sapiens, UniProt P27986).
T1 construct: the tandem protein was included in our analysis with all internal amino acids linking the domains; 6X His; thioredoxin; made in house; host or cells: E. coli BL21(DE3)pLysS
Description: FP saturation binding assay. The following applies: high-confidence ErbB interactions. Put shortly:
(§1)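 KD values come from least-squares fits of fluorescence polarization (ex 530, em 555 nm), corrected for thioredoxin nonspecific binding and plate baseline, with outliers pruned. Fixed 10 nM labeled peptide met a 0.002–10 µM protein series for 20 min at room temperature in HEPES/KCl/Tween/DTT buffer, pH 7.8.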

In another test the target is PIK3R2-N SH2 domain (Homo sapiens, UniProt O00459). Description: FP saturation binding assay.
Sequence of PIK3R2-N SH2 domain (O00459 330-425 limits assumed): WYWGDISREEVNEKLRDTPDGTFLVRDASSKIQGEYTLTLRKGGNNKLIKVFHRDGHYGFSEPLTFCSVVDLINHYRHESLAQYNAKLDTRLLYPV
A further test addresses SH2D2A SH2 domain (Homo sapiens, UniProt Q9NP31). Description: FP saturation binding assay.
The target of another test is LCP2 SH2 domain (Homo sapiens, UniProt Q13094). Description: FP saturation binding assay.
Sequence of LCP2 SH2 domain (Q13094 422-530 limits assumed): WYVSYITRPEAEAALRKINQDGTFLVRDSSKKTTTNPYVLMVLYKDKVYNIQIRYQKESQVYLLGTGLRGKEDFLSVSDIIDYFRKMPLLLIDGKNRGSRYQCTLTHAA
The target of another test is BLNK SH2 domain (Homo sapiens, UniProt Q8WV28). Description: FP saturation binding assay.
Sequence of BLNK SH2 domain (Q8WV28 346-453 limits assumed): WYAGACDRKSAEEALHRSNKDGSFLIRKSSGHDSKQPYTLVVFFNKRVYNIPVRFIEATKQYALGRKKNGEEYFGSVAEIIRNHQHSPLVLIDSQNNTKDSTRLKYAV
A further test concerns the target T2, VAV3 SH2 domain (Homo sapiens, UniProt Q9UKW4).
T2 construct: 6X His; thioredoxin; made in house; host or cells: BL21(DE3)pLysS E. coli
Description: FP saturation binding assay. The following applies: protein VAV3, high-confidence ErbB interactions, mean of replicate hits. Put shortly:
as §1

The target in another test is VAV1 SH2 domain (Homo sapiens, UniProt P15498). Description: FP saturation binding assay.
Sequence of VAV1 SH2 domain (P15498 671-765 limits assumed): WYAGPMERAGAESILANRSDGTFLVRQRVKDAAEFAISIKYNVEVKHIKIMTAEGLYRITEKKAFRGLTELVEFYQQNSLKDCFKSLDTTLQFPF
The next test concerns the target GRB2 SH2 domain (Homo sapiens, UniProt P62993). Description: FP saturation binding assay.
For a further test, the target named is T3, HSH2D SH2 domain (Homo sapiens, UniProt Q96JZ2).
T3 sequence (Q96JZ2 34-125 limits assumed): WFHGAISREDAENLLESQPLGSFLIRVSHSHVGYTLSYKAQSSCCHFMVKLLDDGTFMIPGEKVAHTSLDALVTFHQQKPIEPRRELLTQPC
Description: FP saturation binding assay.

For the next test, the target named is STAP1 SH2 domain (Homo sapiens, UniProt Q9ULZ2). Description: FP saturation binding assay.
Sequence of STAP1 SH2 domain (Q9ULZ2 177-280 limits assumed): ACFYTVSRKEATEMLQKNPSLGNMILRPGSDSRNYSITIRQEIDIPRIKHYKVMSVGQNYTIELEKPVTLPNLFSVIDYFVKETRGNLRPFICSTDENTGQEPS
A further test has as its target GRB7 SH2 domain (Homo sapiens, UniProt Q14451). The arrangement: 6X His; thioredoxin; made in house; host or cells: E. coli BL21(DE3)pLysS. The following applies: previous protein microarray data, Figure S5; cited from earlier work.

pKd: −log10 of the molar value. Residues, ends and D or L forms follow the SMILES beside them.

T1 sequence (P27986 333-718 limits assumed): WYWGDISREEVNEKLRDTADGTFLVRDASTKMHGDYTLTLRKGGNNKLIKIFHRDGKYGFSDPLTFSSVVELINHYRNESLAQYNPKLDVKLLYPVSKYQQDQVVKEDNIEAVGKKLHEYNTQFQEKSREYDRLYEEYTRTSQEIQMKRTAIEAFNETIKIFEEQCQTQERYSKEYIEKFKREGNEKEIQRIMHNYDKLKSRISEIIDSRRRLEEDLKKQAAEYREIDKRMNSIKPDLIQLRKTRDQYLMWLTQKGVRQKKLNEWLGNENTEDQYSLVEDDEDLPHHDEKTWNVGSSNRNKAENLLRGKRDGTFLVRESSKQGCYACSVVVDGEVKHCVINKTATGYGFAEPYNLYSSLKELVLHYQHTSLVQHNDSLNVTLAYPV
T2 sequence (Q9UKW4 672-766 limits assumed): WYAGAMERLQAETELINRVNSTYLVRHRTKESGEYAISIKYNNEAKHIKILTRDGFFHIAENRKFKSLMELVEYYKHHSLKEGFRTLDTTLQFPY
Sequence of GRB2 SH2 domain (P62993 60-152 limits assumed): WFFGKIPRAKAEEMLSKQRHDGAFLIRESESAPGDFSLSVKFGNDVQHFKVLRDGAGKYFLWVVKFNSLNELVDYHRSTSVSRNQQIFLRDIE
Sequence of SH2D2A SH2 domain (Q9NP31 95-186 limits assumed): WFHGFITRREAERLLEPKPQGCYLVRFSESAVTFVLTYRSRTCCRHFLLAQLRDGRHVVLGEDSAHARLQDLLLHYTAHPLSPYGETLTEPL
Sequence of GRB7 SH2 domain (Q14451 431-527 limits assumed): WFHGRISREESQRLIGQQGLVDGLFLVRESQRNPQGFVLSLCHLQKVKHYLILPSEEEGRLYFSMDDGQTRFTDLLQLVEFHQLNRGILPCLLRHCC

`CC(C)C[C@H](NC(=O)[C@H](Cc1ccc(OP(=O)(O)O)cc1)NC(=O)[C@H](CCC(=O)O)NC(=O)[C@H](CCC(=O)O)NC(=O)[C@H](C)NC(=O)[C@@H](N)CC(=O)O)C(=O)N[C@H](C(=O)N1CCC[C@H]1C(=O)N[C@@H](CCC(N)=O)C(=O)N[C@@H](CCC(N)=O)C(=O)NCC(=O)N[C@@H](Cc1ccccc1)C(=O)N[C@@H](CC(=O)O)C(=O)O)C(C)C` [ErbB2 1023 13-mer] (HELM PEPTIDE1{D.A.E.E.[O=C([C@H](Cc1ccc(OP(=O)(O)O)cc1)N[*:1])[*:2]].L.V.P.Q.Q.G.F.D}$$$$V2.0): the pKd in test [1] (Protein PIK3R1-NC, FP saturation binding, mean over replicate hits) is 5.15. Take `CC(C)[C@H](NC(=O)[C@H](CC(=O)O)NC(=O)[C@@H]1CCCN1C(=O)[C@H](CCC(N)=O)NC(=O)[C@H](CC(N)=O)NC(=O)[C@@H](NC(=O)[C@H](Cc1ccc(OP(=O)(O)O)cc1)NC(=O)[C@H](CCC(=O)O)NC(=O)[C@@H]1CCCN1C(=O)[C@H](CCC(N)=O)NC(=O)[C@@H]1CCCN1)C(C)C)C(=O)N[C@@H](CCCNC(=N)N)C(=O)N[C@@H](CC(=O)O)C(=O)O` [ErbB2 1139 13-mer] (HELM PEPTIDE1{P.Q.P.E.[O=C([C@H](Cc1ccc(OP(=O)(O)O)cc1)N[*:1])[*:2]].V.N.Q.P.D.V.R.D}$$$$V2.0): the pKd on PIK3R2-N SH2 domain is 5.66; on SH2D2A SH2 domain, 5.32. Take `CC(C)C[C@H](NC(=O)[C@H](CC(N)=O)NC(=O)[C@@H](N)CC(=O)O)C(=O)N[C@@H](Cc1ccc(O)cc1)C(=O)N[C@@H](Cc1ccc(OP(=O)(O)O)cc1)C(=O)N[C@@H](Cc1c[nH]c2ccccc12)C(=O)N[C@@H](CC(=O)O)C(=O)N[C@@H](CCC(N)=O)C(=O)N[C@@H](CC(=O)O)C(=O)N1CCC[C@H]1C(=O)N1CCC[C@H]1C(=O)N[C@@H](CCC(=O)O)C(=O)N[C@@H](CC(=O)O)C(=O)O` [ErbB2 1222 13-mer] (HELM PEPTIDE1{D.N.L.Y.[O=C([C@H](Cc1ccc(OP(=O)(O)O)cc1)N[*:1])[*:2]].W.D.Q.D.P.P.E.D}$$$$V2.0): the pKd at LCP2 SH2 domain was 4.93. With `CSCC[C@H](NC(=O)[C@H](Cc1ccc(OP(=O)(O)O)cc1)NC(=O)[C@H](CCC(=O)O)NC(=O)[C@H](Cc1ccc(O)cc1)NC(=O)CNC(=O)[C@@H](N)CC(C)C)C(=O)N[C@@H](CC(=O)O)C(=O)N[C@H](C(=O)NCC(=O)N[C@@H](CO)C(=O)N[C@@H](CC(=O)O)C(=O)N[C@@H](CC(C)C)C(=O)N[C@@H](CC(=O)O)C(=O)O)C(C)C` [ErbB3 1224 13-mer] (HELM PEPTIDE1{L.G.Y.E.[O=C([C@H](Cc1ccc(OP(=O)(O)O)cc1)N[*:1])[*:2]].M.D.V.G.S.D.L.D}$$$$V2.0), the pKd at BLNK SH2 domain was 5.44. As to `CSCC[C@H](NC(=O)[C@H](CCC(=O)O)NC(=O)[C@H](CCC(=O)O)NC(=O)[C@H](Cc1ccc(OP(=O)(O)O)cc1)NC(=O)CNC(=O)[C@H](CCC(N)=O)NC(=O)[C@H](CCC(=O)O)NC(=O)[C@@H](N)CO)C(=O)N[C@@H](CCCNC(=N)N)C(=O)N[C@@H](C)C(=O)N[C@@H](Cc1ccccc1)C(=O)N[C@@H](CCC(N)=O)C(=O)N[C@@H](CC(=O)O)C(=O)O` [ErbB3 1289 13-mer] (HELM PEPTIDE1{S.E.Q.G.[O=C([C@H](Cc1ccc(OP(=O)(O)O)cc1)N[*:1])[*:2]].E.E.M.R.A.F.Q.D}$$$$V2.0), the pKd on VAV3 SH2 domain is 5.08. In the case of `CSCC[C@H](NC(=O)[C@H](Cc1ccc(OP(=O)(O)O)cc1)NC(=O)CNC(=O)[C@H](CCC(=O)O)NC(=O)[C@H](CCC(=O)O)NC(=O)[C@H](CC(=O)O)NC(=O)[C@H](CC(C)C)NC(=O)[C@H](CCC(=O)O)NC(=O)CNC(=O)[C@H](CCCNC(=N)N)NC(=O)[C@@H]1CCCN1)C(=O)N[C@H](C(=O)N1CCC[C@H]1C(=O)N[C@@H](CCSC)C(=O)N[C@@H](CCCNC(=N)N)C(=O)N[C@@H](CC(=O)O)C(=O)N[C@@H](CCCCN)C(=O)N[C@@H](CC(=O)O)C(=O)O)[C@@H](C)O` [ErbB4 1150 18-mer] (HELM PEPTIDE1{P.R.G.E.L.D.E.E.G.[O=C([C@H](Cc1ccc(OP(=O)(O)O)cc1)N[*:1])[*:2]].M.T.P.M.R.D.K.D}$$$$V2.0), the pKd in test [1] (protein PIK3R1-NC, FP, mean of replicate hits) was 5.24; at VAV3 SH2 domain, 6.74; at VAV1 SH2 domain, 6.07. With `CC(C)C[C@H](NC(=O)[C@H](Cc1ccc(OP(=O)(O)O)cc1)NC(=O)[C@H](CC(C)C)NC(=O)[C@@H]1CCCN1C(=O)[C@H](CCC(=O)O)NC(=O)[C@H](CC(N)=O)NC(=O)[C@@H](NC(=O)[C@H](Cc1ccc(O)cc1)NC(=O)[C@H](CCC(=O)O)NC(=O)[C@H](CC(=O)O)NC(=O)[C@@H](N)CCC(=O)O)C(C)C)C(=O)N[C@@H](CC(N)=O)C(=O)N[C@H](C(=O)N[C@@H](Cc1ccccc1)C(=O)N[C@@H](C)C(=O)N[C@@H](CC(N)=O)C(=O)N[C@H](C(=O)N[C@@H](CC(=O)O)C(=O)O)[C@@H](C)O)[C@@H](C)O` [ErbB4 1208 18-mer] (HELM PEPTIDE1{E.D.E.Y.V.N.E.P.L.[O=C([C@H](Cc1ccc(OP(=O)(O)O)cc1)N[*:1])[*:2]].L.N.T.F.A.N.T.D}$$$$V2.0), the pKd at GRB2 SH2 domain was 5.61; at HSH2D SH2 domain, 5.94; on STAP1 SH2 domain it was 4.99. As to “DNLYpYWDQDPPEd [ErbB2 pY1222, N-terminally rhodamine-labeled 13-mer phosphopeptide]”, the “interaction with GRB7 on the PM platform” value on GRB7 SH2 domain is listed as “only displayed interactions with GRB7 from the PM platform”.

In general, pKd refers to the Kd on a negative log10 scale, so that one unit is a factor of ten.
